The text below walks through data of patent US12565501B2, “Muscarinic acetylcholine M1 receptor antagonists” (Contineum Therapeutics, Inc., priority 2019, dated 2026).

As usually defined, the IC50 is the concentration at which inhibition is half-maximal.

In this test the target is T1, human M1 receptor (Homo sapiens, UniProt P11229).
T1 sequence (P11229 1-460): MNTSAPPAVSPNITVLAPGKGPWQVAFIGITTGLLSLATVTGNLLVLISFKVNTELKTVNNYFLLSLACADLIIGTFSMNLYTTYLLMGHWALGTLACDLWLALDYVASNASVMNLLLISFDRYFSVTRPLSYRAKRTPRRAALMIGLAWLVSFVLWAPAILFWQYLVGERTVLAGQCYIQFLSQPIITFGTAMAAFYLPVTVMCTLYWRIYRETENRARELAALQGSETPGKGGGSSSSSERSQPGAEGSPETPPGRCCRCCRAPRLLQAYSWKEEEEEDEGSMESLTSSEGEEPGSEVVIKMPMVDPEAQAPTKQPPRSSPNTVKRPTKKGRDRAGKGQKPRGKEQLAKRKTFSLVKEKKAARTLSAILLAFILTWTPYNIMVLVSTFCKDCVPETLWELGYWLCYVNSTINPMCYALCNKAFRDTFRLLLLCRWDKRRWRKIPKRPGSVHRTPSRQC
Kind of test: In vitro functional assay of muscarinic acetylcholine receptor activity (aequorin calcium flux, reversal of EC80 acetylcholine response). The test is classed as cell-based. The conditions noted are these: CHO-K1 cells stably expressing human M1 receptor with aequorin; acetylcholine at EC80; calcium flux (luminescence); read-out: M1 IC50. An outline of the steps:
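Antagonist mode: compound (final 0.1% DMSO) and coelenterazine-loaded M1/aequorin CHO-K1 cells incubated 30 min in the dark before EC80 acetylcholine addition. Calcium flash integrated as 40 s luminescence AUC; IC50 derived from dose-response curves.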
In general terms: Calcium flux is commonly read through the fluorescence of an indicator in the cells.
Regarding `COc1cccc(C(F)(F)CCC(=O)N2CC3CCC(C2)N3c2ccc(C#N)cn2)n1` [Example 145, 6-(3-(4,4-difluoro-4-(6-methoxypyridin-2-yl)butanoyl)-3,8-diazabicyclo[3.2.1]octan-8-yl)nicotinonitrile], the half-maximal inhibitory concentration (IC50) is below 10 nM.

For `N#Cc1ccc(N2[C@@H]3CC[C@H]2CN(C(=O)CCNC2(c4ccc(F)nc4)CC2)C3)nc1` [Example 28, 6-(3-(3-((1-(6-fluoropyridin-3-yl)cyclopropyl)amino)propanoyl)-3,8-diazabicyclo[3.2.1]octan-8-yl)nicotinonitrile], the IC50 was below 10 nM.

For `N#Cc1ccc(C2(OCC(=O)N3CC4CCC(C3)N4c3ccc(C#N)cn3)CC2)cc1` [Example 296, 6-(3-(2-(1-(4-cyanophenyl)cyclopropoxy)acetyl)-3,8-diazabicyclo[3.2.1]octan-8-yl)nicotinonitrile], the IC50 is 1000 to 10000 nM.

Regarding `Cc1csc(C2(OCC(=O)N3CC4CCC(C3)N4c3ccc(C#N)cn3)CCC2)n1` [Example 266, 6-(3-(2-(1-(4-methylthiazol-2-yl)cyclobutoxy)acetyl)-3,8-diazabicyclo[3.2.1]octan-8-yl)nicotinonitrile], the IC50 is 100 to 1000 nM.

In the case of `N#Cc1ccc(N2C3CCC2CN(C(=O)CCC(F)(F)c2ccc(F)cc2)C3)nc1` [Example 124, 6-(3-(4,4-difluoro-4-(4-fluorophenyl)butanoyl)-3,8-diazabicyclo[3.2.1]octan-8-yl)nicotinonitrile], the IC50 fell in the range of 10 to 100 nM.

As to `CC(NCCC(=O)N1CC2CCC(C1)N2c1ccc(C#N)cn1)c1cccc2ncccc12` (racemic) [Example 48, 6-(3-(3-((1-(quinolin-5-yl)ethyl)amino)propanoyl)-3,8-diazabicyclo[3.2.1]octan-8-yl)nicotinonitrile], the IC50 was below 10 nM.

Consider `N#Cc1ccc(N2C[C@H]3CC[C@@H]2CN3C(=O)COC2(c3ccc(F)c(F)c3)CC2)nc1` [Example 286, 6-((1R,4R)-5-(2-(1-(3,4-difluorophenyl)cyclopropoxy)acetyl)-2,5-diazabicyclo[2.2.2]octan-2-yl)nicotinonitrile], for which the IC50 is above 1000 nM.

For `C[C@H](OCC(=O)N1C[C@H]2CC[C@@H](C1)N2c1ccc(C#N)cn1)c1ccc(F)c(F)c1` [Example 182, 6-(3-(2-((S)-1-(3,4-difluorophenyl)ethoxy)acetyl)-3,8-diazabicyclo[3.2.1]octan-8-yl)nicotinonitrile], the half-inhibitory concentration (IC50) was 10 to 100 nM.

Turning to `N#Cc1ccc(N2[C@@H]3CC[C@H]2CN(C(=O)CCNC2(c4ccc(Cl)c(Cl)c4)CC2)C3)nc1` [Example 10, 6-(3-(3-((1-(3,4-dichlorophenyl)cyclopropyl)amino)propanoyl)-3,8-diazabicyclo[3.2.1]octan-8-yl)nicotinonitrile], the IC50 is below 10 nM.

As to `N#Cc1ccc(N2[C@@H]3C[C@H]2CN(C(=O)CCNC2(c4ccc(F)c(F)c4)CC2)C3)nc1` [Example 40, 6-(3-(3-((1-(3,4-difluorophenyl)cyclopropyl)amino)propanoyl)-3,6-diazabicyclo[3.1.1]heptan-6-yl)nicotinonitrile], the IC50 fell in the range of 1000 to 10000 nM.

Take `N#Cc1ccc(N2[C@@H]3CC[C@H]2CN(C(=O)CCNC2(c4ccc(F)c(Cl)c4)CC2)C3)nc1` [Example 35, 6-(3-(3-((1-(3-chloro-4-fluorophenyl)cyclopropyl)amino)propanoyl)-3,8-diazabicyclo[3.2.1]octan-8-yl)nicotinonitrile]: the IC50 is 10 to 100 nM.

On to `N#Cc1ccc(N2C3CCC2CN(C(=O)CNC2(c4cc(F)cc(F)c4)CC2)C3)nc1` [Example 107, 6-(3-((1-(3,5-difluorophenyl)cyclopropyl)glycyl)-3,8-diazabicyclo[3.2.1]octan-8-yl)nicotinonitrile], for which the IC50 was in the range of 10 to 100 nM.

In the case of `N#Cc1ccc(N2C3CCC2CN(C(=O)CNC2CCc4cc(F)cc(F)c42)C3)nc1` (racemic) [Example 91, 6-(3-((5,7-difluoro-2,3-dihydro-1H-inden-1 yl)glycyl)-3,8-diazabicyclo[3.2.1]octan-8-yl)nicotinonitrile], the IC50 was in the range of 100 to 1000 nM.

In the case of `COc1ccc(F)cc1C1(NCC(=O)N2CC3CCC(C2)N3c2ccc(C#N)cn2)CC1` [Example 76, 6-(3-((1-(5-fluoro-2-methoxyphenyl)cyclopropyl)glycyl)-3,8-diazabicyclo[3.2.1]octan-8-yl)nicotinonitrile], the IC50 is below 10 nM.

For the compound `N#Cc1ccc(N2C3CCC2CN(C(=O)COC2(c4cncc(F)c4)CCC2)C3)nc1` [Example 251, 6-(3-(2-(1-(5-fluoropyridin-3-yl)cyclobutoxy)acetyl)-3,8-diazabicyclo[3.2.1]octan-8-yl)nicotinonitrile], the IC50 fell in the range of 100 to 1000 nM.

On to `N#Cc1ccc(N2C3CCC2CN(C(=O)COC2(c4ccc(F)cc4)CC2)C3)nc1` [Example 205, 6-(3-(2-(1-(4-fluorophenyl)cyclopropoxy)acetyl)-3,8-diazabicyclo[3.2.1]octan-8-yl)nicotinonitrile], for which the 50% inhibitory concentration (IC50) fell in the range of 100 to 1000 nM.

In the case of `COc1cc([C@H](C)NCC(=O)N2CC3CCC(C2)N3c2ccc(C#N)cn2)ccc1F` [Example 66, 6-(3-(((S)-1-(4-fluoro-3-methoxyphenyl)ethyl)glycyl)-3,8-diazabicyclo[3.2.1]octan-8-yl)nicotinonitrile], the IC50 is below 10 nM.

For `C[C@H](NCC(=O)N1C[C@H]2CC[C@@H](C1)N2c1ccc(C#N)cn1)c1cccc2c1OC(F)(F)O2` [Example 68, 6-(3-(((S)-1-(2,2-difluorobcnzo[d][1,3]dioxol-4-yl)ethyl)glycyl)-3,8-diazabicyclo[3.2.1]octan-8-yl)nicotinonitrile], the IC50 is below 10 nM.

Take `N#Cc1ccc(N2C3CCC2CN(C(=O)COC2(c4ccc(F)cn4)CCC2)C3)nc1` [Example 249, 6-(3-(2-(1-(5-fluoropyridin-2-yl)cyclobutoxy)acetyl)-3,8-diazabicyclo[3.2.1]octan-8-yl)nicotinonitrile]: the IC50 lay within 10 to 100 nM.

For the compound `N#Cc1ccc(N2C3CCC2CN(C(=O)COC2(c4c(F)cncc4F)CCC2)C3)nc1` [Example 316, 6-(3-(2-(1-(3,5-difluoropyridin-4-yl)cyclobutoxy)acetyl)-3,8-diazabicyclo[3.2.1]octan-8-yl)nicotinonitrile], the IC50 was below 10 nM.

Regarding `COc1c(F)cccc1C1(NCC(=O)N2CC3CCC(C2)N3c2ccc(C#N)cn2)CC1` [Example 77, 6-(3-((1-(3-fluoro-2-methoxyphenyl)cyclopropyl)glycyl)-3,8-diazabicyclo[3.2.1]octan-8-yl)nicotinonitrile], the IC50 was below 10 nM.

For the compound `N#Cc1ccc(N2C3CCC2CN(C(=O)COC2(c4cccc(OC(F)(F)F)c4)CCC2)C3)nc1` [Example 238, 6-(3-(2-(1-(3-(trifluoromethoxy)phenyl)cyclobutoxy)acetyl)-3,8-diazabicyclo[3.2.1]octan-8-yl)nicotinonitrile], the 50% inhibitory concentration (IC50) lay within 100 to 1000 nM.

As for `CC(c1ccccc1Br)[S+]([O-])CCC(=O)N1CC2CCC(C1)N2c1ccc(C#N)cn1` (racemic) [Example 171, 6-(3-(3-((1-(2-bromophenyl)ethyl)sulflnyl)propanoyl)-3,8-diazabicyclo[3.2.1]octan-8-yl) nicotinonitrile], the IC50 was above 1000 nM.

On to `N#Cc1ccc(N2C3CCC2CN(C(=O)CNC2(c4ccc(F)cc4)CC2)C3)nc1` [Example 96, 6-(3-((1-(4-fluorophenyl)cyclopropyl)glycyl)-3,8-diaabicyclo[3.2.1]octan-8-yl)nicotinonitrile], for which the IC50 fell in the range of 100 to 1000 nM.

As for `N#Cc1ccc(N2[C@@H]3COC[C@H]2CN(C(=O)CCNC2(c4ccc(F)c(F)c4)CC2)C3)nc1` [Example 39, 6-(7-(3-((1-(3,4-difluorophenyl)cyclopropyl)amino)propanoyl)-3-oxa-7,9-diazabicyclo[3.3.1]nonan-9-yl)nicotinonitrile], the IC50 is 100 to 1000 nM.

`N#Cc1ccc(N2C3CCC2CN(C(=O)COC2(c4c(F)cnc(Br)c4F)CCC2)C3)nc1` [Example 270, 6-(3-(2-(1-(2-bromo-3,5-difluoropyridin-4-yl)cyclobutoxy)acetyl)-3,8-diazabicyclo[3.2.1]octan-8-yl)nicotinonitrile]: the IC50 was below 10 nM.

In the case of `COc1cc(C2(NCC(=O)N3CC4CCC(C3)N4c3ccc(C#N)cn3)CC2)ccc1F` [Example 109, 6-(3-((1-(4-fluoro-3-methoxyphenyl)cyclopropyl)glycyl)-3,8-diazabicyclo[3.2.1]octan-8-yl)nicotinonitrile], the IC50 is below 10 nM.

As to `COc1cccc2c1CCN(CCC(=O)N1C[C@H]3CC[C@@H](C1)N3c1ccc(C#N)cn1)C2C` (mixture of isomers) [Example 38, 6-(3-(3-(5-methoxy-1-methyl-3,4-dihydroisoquinolin-2(1H)-yl)propanoyl)-3,8-diazabicyclo[3.2.1]octan-8-yl)nicotinonitrile], the IC50 is 1000 to 10000 nM.

In the case of `N#Cc1ccc(N2C3CCC2CN(C(=O)COC2(c4cc(F)ccc4F)CC2)C3)nc1` [Example 213, 6-(3-(2-(1-(2,5-difluorophenyl)cyclopropoxy)acetyl)-3,8-diazabicyclo[3.2.1]octan-8-yl)nicotinonitrile], the IC50 lay within 10 to 100 nM.

Regarding `CC(OCCC(=O)N1CC2CCC(C1)N2c1ccc(C#N)cn1)c1cccc2ncccc12` (racemic) [Example 311, 6-(3-(3-(1-(quinolin-5-yl)ethoxy)propanoyl)-3,8-diazabicyclo[3.2.1]octan-8-yl)nicotinonitrile], the IC50 was below 10 nM.
